Test results: PubChem BioAssay (NCI)
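Five concentrations, 48 hours, 96-well plates. The concentration for 50% growth inhibition is given as GI50. TGI is the concentration that stops growth completely.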

What was measured:
Experiment in all cases: inhibition of tumour cell growth, NCI panel, 48 h
SNB-19 CNS = test system: SNB-19 CNS
UACC-62 melanoma = test system: UACC-62 melanoma
HCC-2998 colon = test system: HCC-2998 colon
OVCAR-8 ovarian = test system: OVCAR-8 ovarian
NCI/ADR-RES ovarian = test system: NCI/ADR-RES ovarian
SF-295 CNS = test system: SF-295 CNS
UO-31 renal = test system: UO-31 renal
NCI-H460 lung = test system: NCI-H460 lung
SNB-75 CNS = test system: SNB-75 CNS
BT-549 breast = test system: BT-549 breast
HOP-92 NSCLC = test system: HOP-92 NSCLC
KM12 colon = test system: KM12 colon
MDA-MB-231 breast = test system: MDA-MB-231 breast
HOP-62 NSCLC = test system: HOP-62 NSCLC
IGROV1 ovarian = test system: IGROV1 ovarian
SK-MEL-2 melanoma = test system: SK-MEL-2 melanoma
ACHN renal = test system: ACHN renal
SN12C renal = test system: SN12C renal
786-0 renal = test system: 786-0 renal
MALME-3M melanoma = test system: MALME-3M melanoma
T-47D breast = test system: T-47D breast
RXF 393 renal = test system: RXF 393 renal
SF-268 CNS = test system: SF-268 CNS
HCT-116 colon = test system: HCT-116 colon
HS 578T breast = test system: HS 578T breast
TK-10 renal = test system: TK-10 renal
PC-3 prostate = test system: PC-3 prostate
DU-145 prostate = test system: DU-145 prostate
A498 renal = test system: A498 renal
NCI-H23 lung = test system: NCI-H23 lung
NCI-H522 lung = test system: NCI-H522 lung
NCI-H226 lung = test system: NCI-H226 lung
U251 CNS = test system: U251 CNS
HCT-15 colon = test system: HCT-15 colon
SR leukemia = test system: SR leukemia
CAKI-1 renal = test system: CAKI-1 renal
HL-60(TB) leukemia = test system: HL-60(TB) leukemia
SF-539 CNS = test system: SF-539 CNS
OVCAR-3 ovarian = test system: OVCAR-3 ovarian
OVCAR-5 ovarian = test system: OVCAR-5 ovarian
A549 NSCLC = test system: A549 NSCLC
SK-OV-3 ovarian = test system: SK-OV-3 ovarian

COc1cc(-c2nn3c(/C=C4/C(=O)Nc5ccccc54)c(-c4ccc(C)cc4)nc3s2)cc(OC)c1OC
GI50 (SNB-19 CNS): 7.89 µM
TGI (SNB-19 CNS): 34.2 µM
GI50 (UACC-62 melanoma): 5.47 µM
TGI (UACC-62 melanoma): > 100 µM
GI50 (HCC-2998 colon): > 100 µM
TGI (HCC-2998 colon): > 100 µM
GI50 (OVCAR-8 ovarian): 3.71 µM
TGI (OVCAR-8 ovarian): > 100 µM
GI50 (NCI/ADR-RES ovarian): 3.05 µM
TGI (NCI/ADR-RES ovarian): > 100 µM
GI50 (SF-295 CNS): 5.04 µM
TGI (SF-295 CNS): 31.1 µM
GI50 (UO-31 renal): 8.44 µM
TGI (UO-31 renal): > 100 µM
GI50 (NCI-H460 lung): 1.98 µM
TGI (NCI-H460 lung): > 100 µM
GI50 (SNB-75 CNS): 0.552 µM
TGI (SNB-75 CNS): 10.7 µM
GI50 (BT-549 breast): 4.69 µM
TGI (BT-549 breast): 38.1 µM
GI50 (HOP-92 NSCLC): 0.42 µM
TGI (HOP-92 NSCLC): 8.99 µM
GI50 (KM12 colon): > 100 µM
TGI (KM12 colon): > 100 µM
GI50 (MDA-MB-231 breast): 3.51 µM
TGI (MDA-MB-231 breast): 20.8 µM
GI50 (HOP-62 NSCLC): 4.14 µM
TGI (HOP-62 NSCLC): 23.3 µM
GI50 (IGROV1 ovarian): 4.75 µM
TGI (IGROV1 ovarian): > 100 µM
GI50 (SK-MEL-2 melanoma): 16.3 µM
TGI (SK-MEL-2 melanoma): 30.9 µM
GI50 (ACHN renal): 4.98 µM
TGI (ACHN renal): 23.7 µM
GI50 (SN12C renal): 5.26 µM
TGI (SN12C renal): > 100 µM
GI50 (786-0 renal): 5.8 µM
TGI (786-0 renal): 21.4 µM
GI50 (MALME-3M melanoma): 0.765 µM
TGI (MALME-3M melanoma): 4.78 µM
GI50 (T-47D breast): 3.13 µM
TGI (T-47D breast): > 100 µM
GI50 (RXF 393 renal): 2.24 µM
TGI (RXF 393 renal): 14.7 µM
GI50 (SF-268 CNS): 3.62 µM
TGI (SF-268 CNS): > 100 µM
GI50 (HCT-116 colon): 2.59 µM
TGI (HCT-116 colon): 13.8 µM
GI50 (HS 578T breast): 0.505 µM
TGI (HS 578T breast): 7.49 µM
GI50 (TK-10 renal): 1.69 µM
TGI (TK-10 renal): 4.38 µM
GI50 (PC-3 prostate): 81.1 µM
TGI (PC-3 prostate): > 100 µM
GI50 (DU-145 prostate): 2.55 µM
TGI (DU-145 prostate): > 100 µM
GI50 (A498 renal): 7.28 µM
TGI (A498 renal): 36.7 µM
GI50 (NCI-H23 lung): 4.54 µM
TGI (NCI-H23 lung): 25.3 µM
GI50 (NCI-H522 lung): 10.2 µM
TGI (NCI-H522 lung): 37.5 µM
GI50 (NCI-H226 lung): 22.5 µM
TGI (NCI-H226 lung): 59.9 µM
GI50 (U251 CNS): 1.59 µM
TGI (U251 CNS): 3.43 µM
GI50 (HCT-15 colon): 2.68 µM
TGI (HCT-15 colon): > 100 µM
GI50 (SR leukemia): 2.35 µM
TGI (SR leukemia): > 100 µM
GI50 (CAKI-1 renal): 15.4 µM
TGI (CAKI-1 renal): > 100 µM
GI50 (HL-60(TB) leukemia): > 100 µM
TGI (HL-60(TB) leukemia): > 100 µM
GI50 (SF-539 CNS): 12.9 µM
TGI (SF-539 CNS): 96 µM
GI50 (OVCAR-3 ovarian): 2.9 µM
TGI (OVCAR-3 ovarian): > 100 µM
GI50 (OVCAR-5 ovarian): > 100 µM
TGI (OVCAR-5 ovarian): > 100 µM
GI50 (A549 NSCLC): 2.12 µM
TGI (A549 NSCLC): > 100 µM
GI50 (SK-OV-3 ovarian): 15.2 µM
TGI (SK-OV-3 ovarian): 39.7 µM
